Laboratory results: patent US20260274922A1, “SYNTHETIC ESTROGEN RECEPTOR (ER)-DERIVED PEPTIDE” (THE TEXAS A&M UNIVERSITY SYSTEM, priority 2023, published 2026)
Where a SMILES comes first, the peptide text is derived from it. The star is where a group is joined. Cbz = O=C(OCc1ccccc1)*

B1: ERα 60-280: ERα 60-280 domain, overexpressed in HepG2 cells (protein, UniProt P03372 60-280, looked up, fragment)
chain: YEFNAAAAANAQVYGQTGLPYGPGSEAAAFGSNGLGGFPPLNSVSPSPLMLLHPPPQLSPFLQPHGQQVPYYLENEPSGYTVREAGPPAFYRPNSDNRRQGGRERLASTNDKGSMAMESAKETRYCAVCNDYASGYHYGVWSCEGCKAFFKRSIQGHNDYMCPATNQCTIDKNRRKSCQACRLRKCYEVGMMKGGIRKDRRGGRMLKHKRQRDDGEGRGEV

Experiments:
Format in all cases: cell-based
IRS1 [1] = assay: IRS1 protein levels in ERα deficient mouse primary hepatocytes treated with MG132; settings: ERαLivKO hepatocytes, 10 μM MG132 for 3 hours
Description: Representative blots are shown. […] Co-immunoprecipitation was performed.
Primary hepatocytes isolation and cell culture. Primary hepatocytes were isolated. Male mice at age of 8-12 weeks were infused with a perfusion buffer A (calcium and magnesium-free HBSS supplemented with 10 mM HEPES, 50 mM EGTA, 1 mM glucose, and 1% penicillin-streptomycin, pH 7.4) through portal vein for 6-8 min. Then perfusion buffer A was changed to buffer B (calcium and magnesium-free HBSS supplemented with 10 mM HEPES, 1 mM CaCl2), 1 mM glucose, 1% penicillin-streptomycin, and 0.5 mg/mL collagenase II, pH 7.4). […] Liver cells were suspended and passed through a 70 μm cell strainer, followed by centrifuge at 1700 rpm for 2 min. Pellets were resuspended with Percoll at final concentration of 36% and centrifuged at 1800 rpm for 6 min. The hepatocyte pellet was washed and suspended with DMEM supplemented with 10% FBS and 1% penicillin-streptomycin in collagen-coated plates. The HepG2 cell line was purchased from Abcam and cultured with DMEM medium supplemented with 10% FBS and 1% penicillin-streptomycin in collagen-coated plates. The human embryo kidney (HEK) 293 cell line was purchased from Sigma and cultured with DMEM medium supplemented with 10% FBS and 1% penicillin-streptomycin. […]
(§1) Co-immunoprecipitation and Western blotting analysis. […] Protein bands were detected using a ChemiDoc image system.

HepG2 cells (IRS1, pAKT) = assay: Gain-of-function of ERα domains on insulin sensitivity in HepG2 cells; settings: overexpression
Description: Primary hepatocytes isolation and cell culture. Primary hepatocytes were isolated. Male mice at age of 8-12 weeks were infused with a perfusion buffer A (calcium and magnesium-free HBSS supplemented with 10 mM HEPES, […], 1 mM glucose, and 1% penicillin-streptomycin, pH 7.4) through portal vein for 6-8 min. Then perfusion buffer A was changed to buffer B (calcium and magnesium-free HBSS supplemented with 10 mM HEPES, 1 mM CaCl2), 1 mM glucose, 1% penicillin-streptomycin, and 0.5 mg/mL collagenase II, pH 7.4). […] Liver cells were suspended and passed through a 70 μm cell strainer, followed by centrifuge at 1700 rpm for 2 min. Pellets were resuspended with Percoll at final concentration of 36% and centrifuged at 1800 rpm for 6 min. The hepatocyte pellet was washed and suspended with DMEM supplemented with 10% FBS and 1% penicillin-streptomycin in collagen-coated plates. The HepG2 cell line was purchased from Abcam and cultured with DMEM medium supplemented with 10% FBS and 1% penicillin-streptomycin in collagen-coated plates. The human embryo kidney (HEK) 293 cell line was purchased from Sigma and cultured with DMEM medium supplemented with 10% FBS and 1% penicillin-streptomycin. FBS-free DMEM medium was used to culture cells during the experiments.
as §1

IRS1 [2] = biological target: T1, IRS1 (Homo sapiens, UniProt P35568); assay: Immunofluorescence staining in HEK293T cells
T1 sequence (P35568 1-1242): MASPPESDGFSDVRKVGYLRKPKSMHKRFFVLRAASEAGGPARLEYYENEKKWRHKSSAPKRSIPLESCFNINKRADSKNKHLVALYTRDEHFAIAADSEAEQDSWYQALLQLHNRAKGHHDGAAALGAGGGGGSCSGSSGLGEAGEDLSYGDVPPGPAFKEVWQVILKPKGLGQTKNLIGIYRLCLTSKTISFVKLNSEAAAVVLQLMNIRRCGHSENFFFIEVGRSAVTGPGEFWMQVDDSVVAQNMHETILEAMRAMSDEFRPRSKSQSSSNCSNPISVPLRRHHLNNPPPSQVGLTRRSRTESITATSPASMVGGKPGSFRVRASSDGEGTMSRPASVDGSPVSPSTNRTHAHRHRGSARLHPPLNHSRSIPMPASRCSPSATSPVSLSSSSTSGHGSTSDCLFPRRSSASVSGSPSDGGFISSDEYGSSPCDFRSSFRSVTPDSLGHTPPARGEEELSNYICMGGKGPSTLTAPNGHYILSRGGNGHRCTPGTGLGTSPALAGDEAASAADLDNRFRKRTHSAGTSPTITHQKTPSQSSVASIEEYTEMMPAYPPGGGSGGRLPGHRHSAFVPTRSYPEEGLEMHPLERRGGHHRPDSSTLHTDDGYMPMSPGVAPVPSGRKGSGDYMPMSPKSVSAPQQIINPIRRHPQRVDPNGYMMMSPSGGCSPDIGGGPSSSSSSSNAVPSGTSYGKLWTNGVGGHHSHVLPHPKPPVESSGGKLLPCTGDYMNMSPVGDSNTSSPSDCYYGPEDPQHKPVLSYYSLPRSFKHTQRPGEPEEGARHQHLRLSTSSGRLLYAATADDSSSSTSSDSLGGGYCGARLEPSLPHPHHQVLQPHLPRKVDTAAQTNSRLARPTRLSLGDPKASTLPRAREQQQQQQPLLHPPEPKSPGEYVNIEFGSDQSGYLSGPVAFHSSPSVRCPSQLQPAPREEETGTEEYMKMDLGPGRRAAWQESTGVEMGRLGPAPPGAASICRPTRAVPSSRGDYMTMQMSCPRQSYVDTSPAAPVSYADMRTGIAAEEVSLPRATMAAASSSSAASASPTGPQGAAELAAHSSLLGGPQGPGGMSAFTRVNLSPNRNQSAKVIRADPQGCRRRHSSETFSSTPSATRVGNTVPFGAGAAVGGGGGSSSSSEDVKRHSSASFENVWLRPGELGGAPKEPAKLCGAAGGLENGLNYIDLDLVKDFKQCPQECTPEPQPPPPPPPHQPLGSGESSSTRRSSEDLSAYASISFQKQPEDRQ
Description: Immunofluorescence staining. Cells were fixed with 4% formaldehyde solution, followed by incubation with blocking buffer (1×PBS/5% normal serum/0.3% Triton X-100) for 1 h. After rinsing three times using PBS, cells were incubated with primary antibodies overnight at 4° C. Cells were washed with PBS and incubated with secondary antibodies (anti-mouse Alexa Flour 594 Conjugated) at room temperature 1-2 h. Cells were covered with DAPI-contained mounting medium. Fluorescent signal was observed using Confocal microscopy (Leica).

ERα mRNA = ERα mRNA expression in mouse primary hepatocytes treated with insulin; settings: 200 nM insulin for 12 hours
Source text: FIGS. 8A and 8B show the hyperinsulinemia decreases ERα mRNA expression in mouse primary hepatocytes. […] Data are presented as mean±SEM. * p<0.05, One-way ANOVA.
RNA extraction and quantitative real-time PCR. Total RNA was extracted from livers or primary hepatocytes using TRIzol (Invitrogen, Thermo Fisher Scientific), purified with chloroform, 80% ethanol, isopropanol, and RNA column, eluted with RNase free water, and reverse transcribed into cDNA using iScript Reverse Transcription Supermix (Bio-Rad, Hercules, CA). Quantitative real-time PCR (qPCR) was conducted using SsoAdvanced Universal SYBR Green Supermix (Bio-Rad, Hercules, CA) on CFX384 real-time PCR detection system (Bio-Rad, Hercules, CA). Q-PCR started with 95° C. incubation for 3 min, followed by 39 cycles of 95° C. for 5 s and 60° C. for 30 s. The threshold cycle (CT) values were obtained and used to calculate the relative transcriptional level of target genes by 2^−ΔΔCT method with Cyclophilin (Cyp) as an internal control. […].

Row | Molecule | enhancement of insulin-stimulated AKT phosphorylation (HepG2 cells (IRS1, pAKT)) | increase in IRS1 (HepG2 cells (IRS1, pAKT)) | colocalization with IRS1 (IRS1 [2]) | other results
1 | CC(C)C[C@@H](C=O)NC(=O)[C@H](CC(C)C)NC(=O)[C@H](CC(C)C)NC(=O)OCc1ccccc1 [MG132] (Cbz-Leu-Leu-Leu-aldehyde) |  |  |  | IRS1 protein levels (IRS1 [1]): significantly increased
2 | MTMTLHTKASGMALLHQIQGNELEPLNRPQLKIPLERPLGEVYLDSSKPAVYNYPEGAAY (Description of sequence: ER-alpha amino acids 1-60) [ERα 1-60, ERα amino acids 1-60 domain] | ~ 26% | ~ 80% | colocalization with IRS1 | 
3 | TKASGMALLHEPLNRPQLKIPLERDSSKPAVYNY (Description of sequence: AF1 domain portion sequence) [34-amino acid-peptide, overexpressed in cells] | ~ 26% | ~ 80% | colocalization with IRS1 | 
4 | insulin: insulin used to treat primary hepatocytes (200 nM) |  |  |  | mRNA expression levels of ERα (ERα mRNA): significantly decreased
5 | B1 |  |  |  | IRS1 protein levels (HepG2 cells (IRS1, pAKT)): no significant effect; insulin-induced AKT phosphorylation (HepG2 cells (IRS1, pAKT)): no significant effect
